# According to PubChem BioAssay AID651993 (Sanford-Burnham Center for Chemical Genomics, 2013):
# Calls of active or inactive are those of the source.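 How the source made its calls: active means compounds with mean IC50 at or below 50 µM in this heat-shock counterscreen, flagging likely artifacts; inactive means the rest.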
# Test system: C. elegans VP596 Phsp-16.2 GFP/RFP heat-shock reporter
# Experiment: inhibitors of hsp-16.2 heat-shock response – whole organism, C. elegans VP596, GFP/RFP ratio fluorescence, counter-screen for SKN-1 inhibitor project, SAR follow-up (AID 651993)
row,Structure (SMILES),IC50
1,CCOC(=O)Nc1nc(-c2ccc(F)cc2F)cs1,> 64 µM (inactive)
2,Fc1ccc(-c2csc(-c3ccncc3)n2)cc1,> 64 µM (inactive)
3,c1ccc(-c2csc(-c3ccncc3)n2)cc1,> 64 µM (inactive)
4,CCOc1ccc(-c2nc(-c3cccnc3)no2)cc1,> 64 µM (inactive)
5,c1ccc(Nc2nc(-c3cccs3)cs2)nc1,> 64 µM (inactive)
6,Cc1nc2ccccc2cc1OCc1ccc(F)cc1,9.02 µM
7,c1ccc2oc(SCc3nc4ccccc4s3)nc2c1,> 64 µM (inactive)
8,CCOc1cc(CNC2CCCC2)cc(Cl)c1OCc1ccccc1,> 64 µM (inactive)
9,Cc1ccc(N=C/C(C(=O)C(F)(F)F)=C(\O)c2ccco2)cc1Cl,> 64 µM (inactive)
10,Brc1ccc(-c2nc(-c3ccccc3)no2)o1,> 64 µM (inactive)
11,O=C(Nc1nc(-c2ccc(Cl)s2)cs1)c1ccccc1,> 64 µM (inactive)
12,O=C(Nc1ccc(CN2CCOCC2)cc1)c1cc2ccccc2o1,> 64 µM (inactive)
13,O=C(/C=C/Nc1ccc(F)cc1F)c1ccco1,> 64 µM (inactive)
14,Clc1ccc(-c2nnc(-c3ccco3)o2)cc1,> 64 µM (inactive)
15,Clc1ccccc1-c1nnc(-c2ccccc2Cl)o1,> 64 µM (inactive)
16,Fc1ccc(COc2ccc(-c3nnco3)cc2)cc1,> 64 µM (inactive)
17,Cc1cc(OCc2cccc(Cl)c2)c(C)cc1CN1CCOCC1,> 64 µM (inactive)
18,CCOC(=O)c1c(-c2ccc(-c3ccccc3)cc2)csc1NC(=O)CNCCN(C)C,> 64 µM (inactive)
19,COc1cc(CNC2CCCC2)cc(Cl)c1OCc1ccc(F)cc1,> 64 µM (inactive)
20,c1ccc(-c2csc(Nc3ccccn3)n2)cc1,> 64 µM (inactive)

row,Structure (SMILES),IC50
1,O=C(/C=C/Nc1ccc(F)c(F)c1)c1cccs1,> 64 µM (inactive)
2,O=C(/C=C/Nc1ccccc1F)c1cccs1,> 64 µM (inactive)
3,CCc1ccc(-c2nc(-c3ccncc3)no2)cc1,> 64 µM (inactive)
4,O=C(Nc1nc(-c2ccc(Cl)s2)cs1)c1ccco1,> 64 µM (inactive)
5,O=C(/C=C/c1cccs1)c1ccc(Br)cc1,> 64 µM (inactive)
6,Fc1ccc(COc2ccc(-c3nnco3)cc2)c(Cl)c1,> 64 µM (inactive)
7,CCOc1cc(CNC2CCCC2)cc(Cl)c1OCc1ccc(F)cc1,> 64 µM (inactive)
8,c1ccc2sc(SCc3ccc(-c4nnco4)cc3)nc2c1,> 64 µM (inactive)
9,COc1cc(CNC(C)c2ccccc2)cc(Br)c1OCc1ccc(F)cc1 (stereo not drawn),> 64 µM (inactive)
10,CC(C)c1ccc(C(=O)Nc2ccc(CN3CCOCC3)cc2)cc1,> 64 µM (inactive)
11,Cc1ccc(CSc2nnc(-c3ccco3)o2)cc1,> 64 µM (inactive)
12,c1ccc(SCc2cc(-c3ccccc3)no2)cc1,> 64 µM (inactive)
13,Cc1ccc(-c2noc(-c3cccs3)n2)cc1,> 64 µM (inactive)
14,O=C(/C=C/c1ccc(Br)cc1)c1ccc(NC2=NCCCS2)cc1,> 64 µM (inactive)
15,O=C(/C=C/Nc1ccc(Br)cc1F)c1ccco1,> 64 µM (inactive)
16,O=C(Nc1nc2c(ccc3ccccc32)s1)c1ccco1,> 64 µM (inactive)
17,Clc1ccccc1-c1nc(-c2ccncc2)no1,> 64 µM (inactive)
18,Clc1ccc(Nc2nc(-c3cccs3)cs2)nc1,> 64 µM (inactive)
19,O=C(Nc1nc(-c2ccccc2)cs1)c1cccs1,> 64 µM (inactive)
20,CSc1cccc(NC(=O)c2cccc3cccnc23)c1,> 64 µM (inactive)

row,Structure (SMILES),IC50
1,O=C(Nc1nccs1)c1ccc2ccccc2n1,> 64 µM (inactive)
2,Cc1oc(-c2ccc(-c3ccccc3)cc2)nc1CN(C)C1CCOC1 (stereo not drawn),> 64 µM (inactive)
3,O=C(/C=C/c1ccccc1)Nc1ccc(CN2CCOCC2)cc1,> 64 µM (inactive)
4,Cc1ccccc1-c1noc(-c2cccs2)n1,> 64 µM (inactive)
5,O=C(/C=C/Nc1ccc(F)c(Cl)c1)c1ccco1,> 64 µM (inactive)
6,COc1cc(CNC(C)(C)CO)cc(Br)c1OCc1ccc(Cl)cc1,> 64 µM (inactive)
7,COc1ccc(C(=O)Nc2nc(-c3cccs3)cs2)cc1,> 64 µM (inactive)
8,Brc1ccc(CSc2nnc(-c3cccnc3)o2)cc1,> 64 µM (inactive)
9,O=C(Nc1nc(-c2ccc(Cl)s2)cs1)c1cccs1,> 64 µM (inactive)
10,Clc1ccc(-c2nnc(-c3ccccc3)o2)c(Cl)c1,> 64 µM (inactive)
11,CCOc1cc(CNCCSc2nnnn2C)cc(Br)c1OCc1ccc(F)cc1,> 64 µM (inactive)
12,Cc1ccc2nc(-c3ccc(NC(=S)NC4CC(C)(C)NC(C)(C)C4)cc3)sc2c1,> 64 µM (inactive)
13,Brc1ccc(CSc2nnc(-c3ccco3)o2)cc1,> 64 µM (inactive)
14,O=C(/C=C/Nc1ccc(F)cc1F)c1cccs1,> 64 µM (inactive)
15,Brc1ccc(-c2nnc(-c3ccco3)o2)cc1,> 64 µM (inactive)
16,c1ccc(-c2nc(-c3ccncc3)no2)cc1,> 64 µM (inactive)
17,Fc1ccc(-c2csc(Nc3ccccn3)n2)cc1,> 64 µM (inactive)
18,Cc1ccc(Nc2nc(-c3cccs3)cs2)nc1,> 64 µM (inactive)
